The term IC50 denotes the concentration at which inhibition is half-maximal.

Sequence of human ERK-2 (Mitogen Activated Kinase 1) (P28482 8-360): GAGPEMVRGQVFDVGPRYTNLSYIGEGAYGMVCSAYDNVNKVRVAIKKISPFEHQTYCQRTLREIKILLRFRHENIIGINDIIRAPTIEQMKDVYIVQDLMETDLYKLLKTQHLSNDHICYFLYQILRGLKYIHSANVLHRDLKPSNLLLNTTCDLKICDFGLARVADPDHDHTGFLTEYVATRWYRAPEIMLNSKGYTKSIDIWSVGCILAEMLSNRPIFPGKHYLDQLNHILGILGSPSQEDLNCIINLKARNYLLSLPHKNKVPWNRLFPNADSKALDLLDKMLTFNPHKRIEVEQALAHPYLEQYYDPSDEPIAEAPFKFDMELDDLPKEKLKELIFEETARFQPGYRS

The target in one assay is human ERK-2 (Mitogen Activated Kinase 1) (Homo sapiens (Human), UniProt P28482). In words: ERK-2 Enzymatic Assay. The assay is classed as biochemical. The settings on record: 5 nM ERK-2 enzyme, 25 μM ATP, Omnia peptide S/T17; single assay or mean of multiple assays; read-out: IC50 (ERK-2 Enzymatic Assay), TABLE I. As to the method:
Compounds were tested in an enzymatic assay using human ERK-2 (Mitogen Activated Kinase 1), recombinantly expressed as an N-terminal 6-His fusion protein in E. coli and corresponding to aa 8-360. The substrate used was the fluorescent Omnia peptide S/T17 (Invitrogen of Carlsbad, Calif.; Cat. KNZ1171C). Test compounds were diluted in DMSO in 3-fold serial dilutions at 100× final concentrations. […] The assay was run at ambient temperature in a white 384-well polypropylene plate (Nunc, Inc of Naperville, Ill.; Cat. 267462) collecting data every 50 seconds for approximately 30 minutes on an Envision plate reader (PerkinElmer, Inc. of Waltham, Mass.); Excitation 340 nm/Emission 495 nm. The data collected from each well was fit to a straight line and the resulting rates were used to calculate percent of control. Percent of control was plotted against compound concentration and IC50 values were determined using a four-parameter fit. Representative data is in TABLE I and TABLE II. The reported IC50 may be from a single assay or the mean of multiple assays.
Take `COc1ccc([C@@H](NC(=O)c2cc(F)c3cnc(NC4CCOCC4)nc3c2)[C@@H]2CCCN2)cc1F` (stereo in doubt) [I-25, 5-fluoro-2-(tetrahydropyran-4-ylamino)-quinazoline-7-carboxylic acid [(S)-(3-fluoro-4-methoxy-phenyl)-(R)-pyrrolidin-2-yl-methyl]-amide]: the IC50 is 9 nM. For the compound `C[C@@H](CO)Nc1ncc2ccc(C(=O)NC(c3ccc(Cl)c(F)c3)c3ccn(C)n3)cc2n1` (stereo partly drawn) [I-6, N-((4-chloro-3-fluorophenyl)(1-methyl-1H-pyrazol-3-yl)methyl)-2-((S)-1-hydroxypropan-2-ylamino)quinazoline-7-carboxamide], the IC50 worked out at 5 nM. In the case of `CC(C)Nc1ncc2ccc(C(=O)N[C@H](c3ccc(C(F)(F)F)c(F)c3)[C@@H]3CCCN3)cc2n1` (stereo in doubt) [I-5, 2-isopropylamino-quinazoline-7-carboxylic acid [(S)-(3-fluoro-4-trifluoromethyl-phenyl)-(R)-pyrrolidin-2-yl-methyl]-amide], the IC50 came out at 2.3 nM. Still for that read-out and setting: next, `COc1ccc([C@@H](NC(=O)c2ccc3cnc(NC4CCOCC4)nc3c2)[C@@H]2CCCN2)cc1F` (stereo in doubt) [I-24, 2-(tetrahydropyran-4-ylamino)-quinazoline-7-carboxylic acid [(S)-(3-fluoro-4-methoxy-phenyl)-(R)-pyrrolidin-2-yl-methyl]-amide]: 8.2 nM; `O=C(N[C@H](c1ccc(C(F)(F)F)c(F)c1)[C@@H]1CCCN1)c1ccc2cnc(NC3CCOCC3)nc2c1` (stereo in doubt) [I-7, 2-(tetrahydropyran-4-ylamino)-quinazoline-7-carboxylic acid [(S)-(3-fluoro-4-trifluoromethyl-phenyl)-(R)-pyrrolidin-2-yl-methyl]-amide]: 1.8 nM. In the case of `O=C(N[C@H](c1ccc(Cl)c(F)c1)[C@@H]1CCCN1)c1ccc2cnc(NC3CCOCC3)nc2c1` (stereo in doubt) [I-23, 2-(tetrahydropyran-4-ylamino)-quinazoline-7-carboxylic acid [(S)-(4-chloro-3-fluoro-phenyl)-(R)-pyrrolidin-2-yl-methyl]-amide], the IC50 was found to be 2.3 nM. For the compound `CCn1ccc([C@@H](NC(=O)c2ccc3cnc(NC4CCOCC4)nc3c2)c2ccc(Cl)c(F)c2)n1` [I-19, 2-(tetrahydropyran-4-ylamino)-quinazoline-7-carboxylic acid [(S)-(4-chloro-3-fluoro-phenyl)-(1-ethyl-1H-pyrazol-3-yl)-methyl]-amide], the IC50 stood at 2.4 nM.

Staying with this assay, now noted: 5 nM ERK-2 enzyme, 25 μM ATP, Omnia peptide S/T17; single assay or mean of multiple assays; read-out: IC50 (ERK-2 Enzymatic Assay), TABLE II.
Take `COc1ccc([C@H](NC(=O)c2cc(F)c3cnc(NC(C)C(F)(F)F)nc3c2)c2cnn(C)c2)cc1F` (single isomer, unassigned) [II-1]: the IC50 is 6.2 nM. For the compound `COc1ccc([C@H](NC(=O)c2cc(F)c3cnc(NC(C)C(F)(F)F)nc3c2)c2cnn(C)c2)cc1F` (single isomer, unassigned) [II-2], the IC50 came to 13.6 nM.

For the origin of these results see patent publication US9187462B2, “Substituted quinazolines as serine/threonine kinase inhibitors” (Array BioPharma Inc., priority 2011, dated 2015).
